In patent US20090233942A1, “Genetic markers associated with response to antidepressants” (priority 2008, published 2009):

Assays:
BCLXL expression = conditions: rat depression model, chronic administration; cited from earlier work
CYP2C9 = CYP2C9 (Homo sapiens, UniProt P11712); conditions: cited from earlier work
c-fos [1] = conditions: rat; cited from earlier work
laminin, CAM-L1, pCREB = conditions: chronic administration, unstressed rats; cited from earlier work
MAPK1 = conditions: cultured rat astrocytes; cited from earlier work
patients with MDD = assay: Five Phase II studies of vilazodone, eight weeks of treatment; assay type: in vivo, human; conditions: active comparator in three Phase II studies
Text: As part of the vilazodone development program, five Phase II studies have been conducted, all in patients with MDD. These studies randomized 2,098 patients for eight weeks of treatment, 1196 of whom received vilazodone.

CYP3A4 = CYP3A4 (Homo sapiens, UniProt P08684); conditions: cited from earlier work
CYP3A4, sequence (P08684 whole entry): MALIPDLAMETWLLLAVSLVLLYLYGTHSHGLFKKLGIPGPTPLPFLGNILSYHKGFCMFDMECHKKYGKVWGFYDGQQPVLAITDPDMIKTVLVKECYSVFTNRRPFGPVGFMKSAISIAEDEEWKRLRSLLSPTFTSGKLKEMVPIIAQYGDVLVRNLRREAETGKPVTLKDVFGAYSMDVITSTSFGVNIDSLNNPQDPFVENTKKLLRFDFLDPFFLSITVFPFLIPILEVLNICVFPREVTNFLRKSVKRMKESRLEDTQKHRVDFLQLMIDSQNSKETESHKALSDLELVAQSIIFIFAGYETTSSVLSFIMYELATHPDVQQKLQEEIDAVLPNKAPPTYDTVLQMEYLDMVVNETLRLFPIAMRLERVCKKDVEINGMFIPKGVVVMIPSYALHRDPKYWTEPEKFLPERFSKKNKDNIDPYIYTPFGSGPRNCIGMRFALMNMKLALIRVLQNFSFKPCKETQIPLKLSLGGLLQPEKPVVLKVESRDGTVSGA

c-fos [2] = conditions: unstressed rats; cited from earlier work
CYP1A2 = target: T1, CYP1A2 (Homo sapiens, UniProt P05177); conditions: cited from earlier work
T1 sequence (P05177 1-516): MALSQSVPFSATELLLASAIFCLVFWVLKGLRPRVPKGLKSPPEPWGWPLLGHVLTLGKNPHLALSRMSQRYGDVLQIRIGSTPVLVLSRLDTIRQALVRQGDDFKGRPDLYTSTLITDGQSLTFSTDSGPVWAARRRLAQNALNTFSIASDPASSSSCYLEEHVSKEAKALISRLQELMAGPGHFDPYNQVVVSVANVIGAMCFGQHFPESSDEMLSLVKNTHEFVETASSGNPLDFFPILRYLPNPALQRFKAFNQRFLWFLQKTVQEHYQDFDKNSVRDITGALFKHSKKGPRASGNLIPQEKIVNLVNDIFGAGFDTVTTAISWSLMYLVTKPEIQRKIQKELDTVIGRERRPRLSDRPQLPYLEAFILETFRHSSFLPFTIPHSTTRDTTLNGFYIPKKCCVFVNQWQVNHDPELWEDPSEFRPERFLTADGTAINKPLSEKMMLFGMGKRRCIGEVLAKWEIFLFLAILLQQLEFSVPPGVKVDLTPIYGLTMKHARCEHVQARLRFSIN

CYP2C19 = CYP2C19 (Homo sapiens, UniProt P33261); conditions: cited from earlier work
CYP2C19, sequence (P33261 whole entry): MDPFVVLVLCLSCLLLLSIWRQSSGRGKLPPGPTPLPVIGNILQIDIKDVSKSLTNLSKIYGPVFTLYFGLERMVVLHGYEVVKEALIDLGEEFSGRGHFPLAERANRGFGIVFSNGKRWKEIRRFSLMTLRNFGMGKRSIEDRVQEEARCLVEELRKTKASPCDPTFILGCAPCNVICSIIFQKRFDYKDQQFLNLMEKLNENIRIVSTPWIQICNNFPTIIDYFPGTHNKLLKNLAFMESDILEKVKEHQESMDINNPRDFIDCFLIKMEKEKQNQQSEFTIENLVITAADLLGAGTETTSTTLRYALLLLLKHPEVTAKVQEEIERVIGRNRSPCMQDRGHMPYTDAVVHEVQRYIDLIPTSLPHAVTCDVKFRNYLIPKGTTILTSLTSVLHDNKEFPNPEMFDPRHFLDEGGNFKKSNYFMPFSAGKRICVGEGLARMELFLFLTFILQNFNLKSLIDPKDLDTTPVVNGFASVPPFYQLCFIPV

GluR1 = conditions: cited from earlier work
PLC-β1 knockout mice = conditions: cited from earlier work
GluR1, GluR2, and GluR3 = conditions: chronic (30 days) administration; mouse nucleus accumbens and dorsal striatum; cited from earlier work
26S proteasome = conditions: cited from earlier work
mice = conditions: intracerebroventricular injection; cited from earlier work

CYP2C9, sequence (P11712 whole entry): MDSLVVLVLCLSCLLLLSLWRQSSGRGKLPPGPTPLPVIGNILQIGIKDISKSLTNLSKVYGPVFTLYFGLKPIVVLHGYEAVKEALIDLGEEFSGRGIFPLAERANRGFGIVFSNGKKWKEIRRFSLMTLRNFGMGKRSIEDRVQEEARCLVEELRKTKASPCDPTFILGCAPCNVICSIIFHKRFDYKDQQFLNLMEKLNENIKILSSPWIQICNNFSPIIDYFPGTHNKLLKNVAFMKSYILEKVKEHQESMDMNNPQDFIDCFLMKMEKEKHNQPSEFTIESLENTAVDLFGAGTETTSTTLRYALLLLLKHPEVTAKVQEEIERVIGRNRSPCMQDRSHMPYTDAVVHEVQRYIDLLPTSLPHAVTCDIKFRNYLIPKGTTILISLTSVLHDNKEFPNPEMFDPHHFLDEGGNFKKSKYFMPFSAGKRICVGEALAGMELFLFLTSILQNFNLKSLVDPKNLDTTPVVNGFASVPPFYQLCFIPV

## N[C@@H]1C[C@H]1c1ccccc1 (racemic) [tranylcypromine]
BCLXL expression
  BCLXL expression in the CA1 and DG subfields: increased

## CN[C@H]1CC[C@@H](c2ccc(Cl)c(Cl)c2)c2ccccc21 [Sertraline]
CYP2C9
  inhibition of CYP2C9: partially inhibit

## CN(C)CCCN1c2ccccc2CCc2ccc(Cl)cc21 [clomipramine]
c-fos [1]
  level of c-fos in the PAG brain region: decreased

## CNCCCN1c2ccccc2CCc2ccccc21 [desipramine]
laminin, CAM-L1, pCREB
  laminin and CAM-L1 in hippocampus and frontal cortex: increased
  pCREB: increased pCREB in the frontal cortex only
c-fos [1]
  level of c-fos in the PAG brain region: decreased

## CNCCC(Oc1ccc(C(F)(F)F)cc1)c1ccccc1 (stereo not shown) [fluoxetine]
MAPK1
  MAPK1 activation: increased
Patients with MDD
  Hamilton Depression Scale (HAM-D) total score versus placebo: did not show a statistically significant improvement
CYP3A4
  inhibition of CYP3A4: inhibit
c-fos [2]
  c-fos staining in the brain: decrease
CYP1A2
  inhibition of CYP1A2: inhibit
CYP2C19
  inhibition of CYP2C19: inhibit
GluR1
  phosphorylation of GluR1: increase

## O=C(CCCN1CCC(O)(c2ccc(Cl)cc2)CC1)c1ccc(F)cc1 [haloperidol]
PLC-β1 knockout mice
  schizophrenic-like behaviors: rescued

## CNCCCC12CCC(c3ccccc31)c1ccccc12 [maprotiline]
GluR1, GluR2, and GluR3
  GluR1, GluR2, and GluR3: increased

## CCCCC[C@H](O)/C=C/[C@H]1C(=O)C=C[C@@H]1C/C=C\CCCC(=O)O [prostaglandin J2]
26S proteasome
  function of the 26S proteasome: inhibited

## CCOc1ccccc1OC(c1ccccc1)C1CNCCO1 (stereo not shown) [reboxetine]
BCLXL expression
  BCLXL expression in the CA1 and DG subfields: increased
c-fos [2]
  c-fos staining in the brain: decrease

## neuropeptide Y [NPY]
mice
  antidepressant-like effect: dose dependent antidepressant-like effect
